By pEC50 is commonly meant the negative decadic logarithm of the EC50, by convention in mol/L. Low values mean a large EC50, high ones a small EC50.

In one assay the target is T1, TRβ (Homo sapiens, UniProt P10828).
T1 construct: expressed in transfected cells; host or cells: HEK293
T1 sequence (P10828 217-461 limits assumed): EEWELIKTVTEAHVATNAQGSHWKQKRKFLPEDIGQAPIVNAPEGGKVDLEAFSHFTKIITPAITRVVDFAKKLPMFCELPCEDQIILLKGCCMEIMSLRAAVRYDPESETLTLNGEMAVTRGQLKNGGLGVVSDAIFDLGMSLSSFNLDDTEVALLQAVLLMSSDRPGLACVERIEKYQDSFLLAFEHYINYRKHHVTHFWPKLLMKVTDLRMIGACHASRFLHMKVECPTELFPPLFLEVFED
Description: Thyroid-hormone reporter-gene assay, TRβ (Gal4 DBD hybrid, luciferase, HEK293). The class given is cell-based. The conditions noted are these: for T3-SI, selectivity index (SI) calculated as EC50 (TRα)/EC50 (TRβ): TRβ over TRα selectivity from reporter-gene EC50 values; for pEC50: reporter cells derived from HEK293, 24 hr incubation, luciferase readout. As to the method:
(§1) Compounds were tested for thyroid-hormone receptor activity using TR reporter-gene assays. Reporter cells used in the assays express a TR-receptor hybrid (either TRα or TRβ) in which the native N-terminal DNA binding domain (DBD) has been replaced with that of the yeast Gal4 DBD. The reporter gene, firefly luciferase, is functionally linked to the Gal4 upstream activation sequence (UAS). Both cell lines were derived from human embryonic kidney (HEK293).
(§2) A suspension of reporter cells was prepared in cell recovery medium containing 10% charcoal-stripped FBS, and dispensed into assay plates. The plates were pre-incubated for 6 hours in a cell culture incubator (37° C./5% CO2/85% humidity).
(§3) These intermediate stocks were subsequently diluted directly into compound screening medium containing 10% charcoal-stripped FBS to generate “2×-concentration” treatment media (containing 0.2, 0.4 or 0.8% DMSO).
(§4) At the end of the pre-incubation period, culture media were discarded from the assay plates, and all wells received 100 μl of compound screening medium. 100 μl of each of the previously prepared “2×-concentration” treatment media were dispensed into duplicate assay wells, thereby achieving the desired final treatment concentrations. The final concentration of DMSO in all assay wells was 0.1, 0.2 or 0.4%. Assay plates were incubated for 24 hr in a cell culture incubator (37° C./5% CO2/85% humidity).
(§5) At the 24 h assay endpoint, treatment media were discarded and […] of luciferase detection reagent was added. Relative luminometer units (RLUs) were quantified from each assay well.

The next assay has as its target T2, TRα (Homo sapiens, UniProt P10827).
T2 construct: expressed in transfected cells; host or cells: HEK293
T2 sequence (P10827 128-410 isoform P10827-2 limits assumed): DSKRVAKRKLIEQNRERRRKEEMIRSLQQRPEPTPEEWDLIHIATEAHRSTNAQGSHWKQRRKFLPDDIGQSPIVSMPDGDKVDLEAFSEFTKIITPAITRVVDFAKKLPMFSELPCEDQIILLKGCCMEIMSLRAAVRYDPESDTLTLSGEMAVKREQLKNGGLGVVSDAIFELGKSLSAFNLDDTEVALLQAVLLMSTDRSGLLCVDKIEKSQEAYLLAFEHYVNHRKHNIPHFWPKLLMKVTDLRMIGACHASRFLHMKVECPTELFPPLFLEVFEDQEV
As to the kind of experiment: Thyroid-hormone reporter-gene assay, TRα (Gal4 DBD hybrid, luciferase, HEK293). The format is cell-based. The conditions noted are these: reporter cells derived from HEK293, 24 hr incubation, luciferase readout. As to the method: as §1, §2, §3, §4, §5

Structures are written as SMILES. pEC50: −log10 of the molar value.

Consider `C[C@@H](c1ccc(F)cc1)c1cc(Cc2c(Cl)cc(OCC(=O)O)cc2Cl)ccc1O` (single isomer, unassigned) [Compound 74], for which, at TRβ, the “T3-SI, selectivity index (SI) calculated as EC50 (TRα)/EC50 (TRβ)” value (“T3-SI, selectivity index (SI) calculated” below) is “++ (3X < T3-SI ≤ 30X)” and the pEC50 was 6.00 to 7.00. Besides, the pEC50 on TRα was less than 6.00.
Take `C[C@H](c1ccc(F)cc1)c1cc(Cc2c(Cl)cc(OCC(=O)O)cc2Cl)ccc1O` (single isomer, unassigned) [Compound 75]: on TRβ, the “T3-SI, selectivity index (SI) calculated” value was “++ (3X < T3-SI ≤ 30X)” and the negative-log EC50 (pEC50) was greater than 8.00. For the same compound, at TRα, the pEC50 was 7.00 to 8.00.
On to `O=C(O)COc1cc(Cl)c(Cc2ccc(O)c(-c3cccc(C(F)(F)F)c3)c2)c(Cl)c1` [Compound 1, 2-(3,5-dichloro-4-((6-hydroxy-3′-(trifluoromethyl)-[1,1′-biphenyl]-3-yl)methyl)phenoxy)acetic Acid], for which, at TRβ, the “T3-SI, selectivity index (SI) calculated” value was “++ (3X < T3-SI ≤ 30X)” and the pEC50 was 6.00 to 7.00. Further, on TRα, the pEC50 is 6.00 to 7.00.
`CCc1cccc(-c2cc(Cc3c(Cl)cc(OCC(=O)O)cc3Cl)ccc2O)c1` [Compound 3, 2-(3,5-dichloro-4-((3′-ethyl-6-hydroxy-[1,1′-biphenyl]-3-yl)methyl)phenoxy)acetic Acid]: on TRβ, the “T3-SI, selectivity index (SI) calculated” value was “+++ (T3-SI > 30X)”. Moreover, the figures for the pEC50 on TRβ and at TRα were 6.00 to 7.00 and less than 6.00, respectively.
Consider `O=C(O)COc1cc(Cl)c(Cc2ccc(O)c(-c3cccc(OC(F)F)c3)c2)c(Cl)c1` [Compound 5, 2-(3,5-dichloro-4-((3′-(difluoromethoxy)-6-hydroxy-[1,1′-biphenyl]-3-yl)methyl)phenoxy)acetic Acid], for which, on TRβ, the “T3-SI, selectivity index (SI) calculated” value was “+++ (T3-SI > 30X)” and the pEC50 is 6.00 to 7.00. Besides, the pEC50 at TRα was less than 6.00.
As for `CCOC(=O)c1cccc(-c2cc(Cc3c(Cl)cc(OCC(=O)O)cc3Cl)ccc2O)c1` [Compound 6, 2-(3,5-dichloro-4-((3′-(ethoxycarbonyl)-6-hydroxy-[1,1′-biphenyl]-3-yl)methyl)phenoxy)acetic Acid], the pEC50 on TRβ was less than 6.00.
Regarding `COc1cccc(-c2cc(Cc3c(Cl)cc(OCC(=O)O)cc3Cl)ccc2O)c1` [Compound 7, 2-(3,5-dichloro-4-((6-hydroxy-3′-methoxy-[1,1′-biphenyl]-3-yl)methyl)phenoxy)acetic Acid], at TRβ, the “T3-SI, selectivity index (SI) calculated” value is “++ (3X < T3-SI ≤ 30X)” and the pEC50 was less than 6.00. On TRα, the pEC50 is less than 6.00.
`O=C(O)COc1cc(Cl)c(Cc2ccc(O)c(-c3cccc(CO)c3)c2)c(Cl)c1` [Compound 8, 2-(3,5-dichloro-4-((6-hydroxy-3′-(hydroxymethyl)-[1,1′-biphenyl]-3-yl)methyl)phenoxy)acetic Acid] showed a pEC50 at TRβ of less than 6.00.
On the same count and under the same terms, with `CC(=O)Nc1cccc(-c2cc(Cc3c(Cl)cc(OCC(=O)O)cc3Cl)ccc2O)c1` [Compound 9, 2-(4-((3′-acetamido-6-hydroxy-[1,1′-biphenyl]-3-yl)methyl)-3,5-dichlorophenoxy)acetic Acid] the figure was less than 6.00.
Consider `CC(=O)c1cccc(-c2cc(Cc3c(Cl)cc(OCC(=O)O)cc3Cl)ccc2O)c1` [Compound 11, 2-(4-((3′-acetyl-6-hydroxy-[1,1′-biphenyl]-3-yl)methyl)-3,5-dichlorophenoxy)acetic Acid], for which the pEC50 on TRβ and on TRα was less than 6.00 throughout.
Turning to `O=C(O)COc1cc(Cl)c(Cc2ccc(O)c(-c3cccc(OC(F)(F)F)c3)c2)c(Cl)c1` [Compound 12, 2-(3,5-dichloro-4-((6-hydroxy-3′-(trifluoromethoxy)-[1,1′-biphenyl]-3-yl)methyl)phenoxy)acetic Acid], the “T3-SI, selectivity index (SI) calculated” value on TRβ is given as “+++ (T3-SI > 30X)”. Besides, the pEC50 on TRβ is 6.00 to 7.00; on TRα it was less than 6.00.
Consider `CC(C)c1cccc(-c2cc(Cc3c(Cl)cc(OCC(=O)O)cc3Cl)ccc2O)c1` [Compound 13, 2-(3,5-dichloro-4-((6-hydroxy-3′-isopropyl-[1,1′-biphenyl]-3-yl)methyl)phenoxy)acetic Acid], for which, at TRβ, the “T3-SI, selectivity index (SI) calculated” value is “+++ (T3-SI > 30X)” and the negative logarithm of the EC50 (pEC50) is 6.00 to 7.00. Also, at TRα, the pEC50 was less than 6.00.
Compound `CS(=O)(=O)c1cccc(-c2cc(Cc3c(Cl)cc(OCC(=O)O)cc3Cl)ccc2O)c1` [Compound 14, 2-(3,5-dichloro-4-((6-hydroxy-3′-(methylsulfonyl)-[1,1′-biphenyl]-3-yl)methyl)phenoxy)acetic Acid] had a negative-log EC50 (pEC50) at TRβ of less than 6.00.
The compound `COCc1cccc(-c2cc(Cc3c(Cl)cc(OCC(=O)O)cc3Cl)ccc2O)c1` [Compound 15, 2-(3,5-dichloro-4-((6-hydroxy-3′-(methoxymethyl)-[1,1′-biphenyl]-3-yl)methyl)phenoxy)acetic Acid] showed a pEC50 on TRβ of less than 6.00.
`O=C(O)COc1cc(Cl)c(Cc2ccc(O)c(-c3cccc(C(F)(F)C(F)(F)F)c3)c2)c(Cl)c1` [Compound 28, 2-(3,5-dichloro-4-((6-hydroxy-3′-(perfluoroethyl)-[1,1′-biphenyl]-3-yl)methyl)phenoxy)acetic Acid] showed a pEC50 on TRβ of less than 6.00.
Consider `O=C(O)COc1cc(Cl)c(Cc2ccc(O)c(-c3ccc(C(F)(F)F)s3)c2)c(Cl)c1` [Compound 37], for which the negative-log EC50 (pEC50) on TRβ was less than 6.00.
In turn, `Cc1ccoc1-c1cc(Cc2c(Cl)cc(OCC(=O)O)cc2Cl)ccc1O` [Compound 44, 2-(3,5-dichloro-4-(4-hydroxy-3-(3-methylfuran-2-yl)benzyl)phenoxy)acetic Acid] had a pEC50 on TRβ of less than 6.00.
Regarding `O=C(O)COc1cc(Cl)c(Cc2ccc(O)c(-c3ccc(F)c(C(F)(F)F)c3)c2)c(Cl)c1` [Compound 48, 2-(3,5-dichloro-4-((4′-fluoro-6-hydroxy-3′-(trifluoromethyl)-[1,1′-biphenyl]-3-yl)methyl)phenoxy)acetic acid], the negative logarithm of the EC50 (pEC50) on TRβ is less than 6.00.
Same read-out and setting: in the case of `O=C(O)COc1cc(Cl)c(Cc2ccc(O)c(-c3cc(F)cc(C(F)(F)F)c3)c2)c(Cl)c1` [Compound 50, 2-(3,5-dichloro-4-((3′-fluoro-6-hydroxy-5′-(trifluoromethyl)-[1,1′-biphenyl]-3-yl)methyl)phenoxy)acetic Acid] it was 6.00 to 7.00; in that of `O=C(O)COc1cc(Cl)c(Cc2ccc(O)c(-c3ccc(F)c(OC(F)F)c3)c2)c(Cl)c1` [Compound 55, 2-(3,5-dichloro-4-((3′-(difluoromethoxy)-4′-fluoro-6-hydroxy-[1,1′-biphenyl]-3-yl)methyl)phenoxy)acetic Acid], less than 6.00.
With `N#Cc1ccc(Cc2cc(Cc3c(Cl)cc(OCC(=O)O)cc3Cl)ccc2O)cc1` [Compound 80, 2-(3,5-dichloro-4-(3-(4-cyanobenzyl)-4-hydroxybenzyl)phenoxy)acetic Acid], on TRβ, the pEC50 is less than 6.00.
With `Cc1ccc(Cc2cc(Cc3c(Cl)cc(OCC(=O)O)cc3Cl)ccc2O)cc1` [Compound 92, 2-(3,5-dichloro-4-(4-hydroxy-3-(4-methylbenzyl)benzyl)phenoxy)acetic Acid], the pEC50 on TRβ is less than 6.00.
With `O=C(O)COc1cc(Cl)c(Cc2ccc(O)c(Cc3cncnc3)c2)c(Cl)c1` [Compound 94, 2-(3,5-dichloro-4-(4-hydroxy-3-(pyrimidin-5-ylmethyl)benzyl)phenoxy) acetic Acid], at TRβ, the pEC50 was less than 6.00.
On to `O=C(O)COc1cc(Cl)c(Cc2ccc(O)c(Cc3ccc(CC(F)(F)F)cc3)c2)c(Cl)c1` [Compound 96, 2-(3,5-dichloro-4-(4-hydroxy-3-(4-(2,2,2-trifluoroethyl)benzyl)benzyl)phenoxy)acetic Acid], for which the negative-log EC50 (pEC50) on TRβ is less than 6.00.

The record behind these values is US11667606B2, “Thyromimetics” (Autobahn Therapeutics, Inc., priority 2019, dated 2023).
